Measurements from patent EP0182135A2, “Novel bis-(substituted amino) anthraquinones” (AMERICAN CYANAMID COMPANY, priority 1984, dated 1986).
Structures can show the parent of a compound that is named as a salt.

How the values were obtained:
[1] = test system: lymphocytic leukemia P388; experiment: Lymphocytic Leukemia P388 Test; type: in vivo, DBA/2 mice
Method: Lymphocytic Leukemia P388 Test
The animals used were DBA/2 mice all of one sex, weighing a minimum of 17 g and all within a 3 g weight range. There were 5 or 6 animals per test group. The tumor transplant was by intraperitoneal injection of 0.1 ml of dilute ascitic fluid containing 10^6 cells of lymphocytic leukemia P388. The test compounds were administered intraperitoneally on days 1, 5 and 9 (relative to tumor inoculation) at various doses. The animals were weighed and survivors were recorded on a regular basis for 30 days. The median survival time and the ratio of survival time for treated (T)/control (C) animals were calculated. The positive control compound was 1,4-dihydroxy-5,8-bis--[ [2-(2-hydroxyethylamino)ethyl ]amino]anthraquinone, dihydrochloride (U.S. Patent 4,197,249) given at the indicated doses by injection.

melanotic melanoma B16 = experiment: Melanotic Melanoma B16 Test; type: in vivo, C57BC/6 mice
Method: The animals used were C57BC/6 mice, all of the same sex, weighing a minimum of 17 g and all within a 3 g weight range. There were normally 10 animals per test group. A 1.0 g portion of melanotic melanoma B16 tumor was homogenized in 10 ml of cold balanced salt solution and a 0.5 ml aliquot of the homogenate was implanted intraperitoneally into each of the test mice. The test compounds were administered intraperitoneally on days one through nine (relative to tumor inoculation) at various doses. The animals were weighed and survivors recorded on a regular basis for 60 days. The median survival time and the ratio of survival time for treated (T)/control (C) animals were calculated. The positive control compound was 1,4-dihydroxy-5,8-bis[[2-(2-hydroxyethylamino)-ethyl]amino]anthraquinone, dihydrochloride (U.S. Patent 4,197,249) given at the indicated doses by injection.

[2] = Dose 0.2 mg/kg intraperitoneally on days 1, 5 and 9
[3] = Dose 0.8 mg/kg intraperitoneally on days 1, 5 and 9
[4] = Dose 3 mg/kg intraperitoneally on days 1, 5 and 9
[5] = Dose 12 mg/kg intraperitoneally on days 1, 5 and 9
[6] = Dose 50 mg/kg intraperitoneally on days 1, 5 and 9
[7] = Dose 1.5 mg/kg intraperitoneally on days one through nine
[8] = Dose 6 mg/kg intraperitoneally on days one through nine
[9] = Dose 25 mg/kg intraperitoneally on days one through nine
[10] = Dose 100 mg/kg intraperitoneally on days one through nine
[11] = Dose 3 mg/kg intraperitoneally on days 1, 5 and 9, 3 mg/kg
[12] = Dose 12 mg/kg intraperitoneally on days 1, 5 and 9, 12 mg/kg
[13] = Dose 50 mg/kg intraperitoneally on days 1, 5 and 9, 50 mg/kg
[14] = Dose 200 mg/kg intraperitoneally on days 1, 5 and 9
[15] = Dose 0.8 mg/kg intraperitoneally on days one through nine
[16] = Dose 3 mg/kg intraperitoneally on days one through nine
[17] = Dose 12 mg/kg intraperitoneally on days one through nine
[18] = Dose 50 mg/kg intraperitoneally on days one through nine
[19] = Dose 0.025 mg/kg intraperitoneally on days 1, 5 and 9
[20] = Dose 0.1 mg/kg intraperitoneally on days 1, 5 and 9
[21] = Dose 0.4 mg/kg intraperitoneally on days 1, 5 and 9
[22] = Dose 1.6 mg/kg intraperitoneally on days 1, 5 and 9
[23] = Dose 6.4 mg/kg intraperitoneally on days 1, 5 and 9
[24] = Dose 0.05 mg/kg intraperitoneally on days one through nine
[25] = Dose 0.2 mg/kg intraperitoneally on days one through nine
[26] = Dose 3 mg/kg intraperitoneally on days 1, 5 and 9, dihydrochloride, 3 mg/kg
[27] = Dose 12 mg/kg intraperitoneally on days 1, 5 and 9, dihydrochloride, 12 mg/kg
[28] = Dose 50 mg/kg intraperitoneally on days 1, 5 and 9, dihydrochloride, 50 mg/kg

Structure (SMILES)	Median Survival [1, 4]	T/C x 100 (%) [1, 4]	Median Survival [1, 5]	T/C x 100 (%) [1, 5]	Median Survival [1, 6]	T/C x 100 (%) [1, 6]	Median Survival (melanotic melanoma B16; [9])	T/C x 100 (%) (melanotic melanoma B16; [9])	Median Survival (melanotic melanoma B16; [10])	T/C x 100 (%) (melanotic melanoma B16; [10])	Median Survival [1, 14]	T/C x 100 (%) [1, 14]	Median Survival (melanotic melanoma B16; [15])	T/C x 100 (%) (melanotic melanoma B16; [15])	Median Survival (melanotic melanoma B16; [16])	T/C x 100 (%) (melanotic melanoma B16; [16])	Median Survival (melanotic melanoma B16; [17])	T/C x 100 (%) (melanotic melanoma B16; [17])	Median Survival (melanotic melanoma B16; [18])	T/C x 100 (%) (melanotic melanoma B16; [18])	further results
CCOC(=O)NCCNc1ccc(NCCNC(=O)OCC)c2c1C(=O)c1c(O)ccc(O)c1C2=O [[(9,10-Dihydro-5,8-dihydroxy-9,10-dioxo-1,4 anthracenediyl)bis(imino-2,1-ethanediyl)]bis-[carbamic acid]diethyl ester]	17 days	170%	21 days	210%	21.5 days	215%	>60 days	>317%	38.5 days	204%	–	–	–	–	–	–	–	–	–	–	Median Survival [1, 2]: 11 days; T/C x 100 (%) [1, 2]: 110%; Median Survival [1, 3]: 14 days; T/C x 100 (%) [1, 3]: 140%; Median Survival (melanotic melanoma B16; [7]): 29.5 days; T/C x 100 (%) (melanotic melanoma B16; [7]): 156%; Median Survival (melanotic melanoma B16; [8]): 39.5 days; T/C x 100 (%) (melanotic melanoma B16; [8]): 209%
CN(C)CCCNC(=S)N(CCO)CCNc1ccc(NCCN(CCO)C(=S)NCCCN(C)C)c2c1C(=O)c1c(O)ccc(O)c1C2=O [N,N"-[(9,10-Dihydro-5,8-dihydroxy-9,10-dioxo-1,4-anthracenediyl)bis(imino-2,1-ethanediyl)]bis[N'-[3-(dimethylamino)propyl]-N-(2-hydroxyethyl)]thiourea]	–	–	–	–	–	–	27.5 days	146%	42 days	222%	23 days	219%	–	–	–	–	–	–	–	–	Median Survival [1, 11]: 13 days; T/C x 100 (%) [1, 11]: 124%; Median Survival [1, 12]: 13.5 days; T/C x 100 (%) [1, 12]: 129%; Median Survival [1, 13]: 19.5 days; T/C x 100 (%) [1, 13]: 186%
COC(=O)C(=O)NCCNc1ccc(NCCNC(=O)C(=O)OC)c2c1C(=O)c1c(O)ccc(O)c1C2=O [2,2[(9-10-Dihydro-5,8-dihydroxy-9,10-dioxo-1,4-anthracenediyl)bis(imino-2,1-ethanediylimino)]-bis[2-oxoacetic acid]dimethyl ester]	16 days	145%	19.5 days	177%	20.5 days	186%	–	–	–	–	23 days	209%	23.5 days	155%	26.5 days	129%	31.5 days	154%	>60 days	>293%	–
O=C1c2c(OC(=O)C(F)(F)F)ccc(OC(=O)C(F)(F)F)c2C(=O)c2c(N(CCN(CCOC(=O)C(F)(F)F)C(=O)C(F)(F)F)C(=O)C(F)(F)F)ccc(N(CCN(CCOC(=O)C(F)(F)F)C(=O)C(F)(F)F)C(=O)C(F)(F)F)c21 [N,N'-(5,8-Dihydroxy-l,4-anthraquinonylene)bis[2,2,2-trifluoro-N-[2,(2,2,2-trifluoro-N-2-hydroxyethyl-acetamido)ethyl]acetamide]tetrakis(trifluoroacetate) (tetraester)]	–	–	–	–	–	–	–	–	–	–	–	–	34 days	166%	>52 days	>254%	42 days	205%	–	–	Median Survival [1, 19]: 13.5 days; T/C x 100 (%) [1, 19]: 117%; Median Survival [1, 20]: 16 days; T/C x 100 (%) [1, 20]: 139%; Median Survival [1, 21]: 15 days; T/C x 100 (%) [1, 21]: 130%; Median Survival [1, 22]: 19.5 days; T/C x 100 (%) [1, 22]: 170%; Median Survival [1, 23]: 26.5 days; T/C x 100 (%) [1, 23]: 230%; Median Survival (melanotic melanoma B16; [24]): 27 days; T/C x 100 (%) (melanotic melanoma B16; [24]): 132%; Median Survival (melanotic melanoma B16; [25]): 27 days; T/C x 100 (%) (melanotic melanoma B16; [25]): 132%
CC(=O)C(=O)NCCNc1ccc(NCCNC(=O)C(C)=O)c2c1C(=O)c1c(O)ccc(O)c1C2=O [N,N'-[9,10-Dihydro-5,8-dihydroxy-9,10-dioxo-1,4-anthracenediyl)bis(imino-2,1-ethanediyl)]bis-[2-oxopropanamide]]	–	–	–	–	13.5 days	123%	43.5 days	182%	38 days	158%	16.5 days	150%	–	–	–	–	–	–	41 days	171%	–
CN(C)CCCNC(=S)N(CCO)CCNc1ccc(NCCN(CCO)C(=S)NCCCN(C)C)c2c1C(=O)c1c(O)ccc(O)c1C2=O [N,N"-[(9,10-Dihydro-5,8-dihydroxy-9,10-dioxo-1,4-anthracenediyl)bis(imino-2,1-ethanediyl)]bis[N'-[3-(dimethylamino)propyl]-N-(2-hydroxyethyl)]thiourea, dihydrochloride]	–	–	–	–	–	–	–	–	–	–	–	–	24.5 days	114%	33.5 days	156%	>60 days	>279%	–	–	Median Survival [1, 26]: 15 days; T/C x 100 (%) [1, 26]: 136%; Median Survival [1, 27]: 19.5 days; T/C x 100 (%) [1, 27]: 177%; Median Survival [1, 28]: 22.5 days; T/C x 100 (%) [1, 28]: 205%
CC(=O)OCCN(CCNc1ccc(NCCN(CCOC(C)=O)C(C)=O)c2c1C(=O)c1c(O)ccc(O)c1C2=O)C(C)=O [N,N'-[5,8-Dihydroxyl,4-anthraquinonylene-bis(imino-ethylene)]bis[N-2-hydroxyethylacetamide-2,2'diacetate]]	10 days	105%	14 days	147%	16 days	168%	–	–	–	–	17 days	179%	21.5 days	106%	21.5 days	106%	20.5 days	101%	21.5 days	106%	Median Survival [1, 3]: 11 days; T/C x 100 (%) [1, 3]: 116%
